Tests used:
[1] = system: rat hepatocytes; assay: Glucose production and fructose-1,6-bisphosphate levels in rat hepatocytes (Example D); format: cell-based
Procedure: Hepatocytes were prepared from fed Sprague-Dawley rats (250-300 g) according to the procedure of Berry and Friend (Berry, M. N., Friend, D. S., 1969, J. Cell. Biol. 43, 506-520) as modified by Groen (Groen, A. K., Sips, H. J., Vervoom, R. C., Tager, J. M., 1982, Eur. J. Biochem. 122, 87-93). Hepatocytes (75 mg wet weight/mL) were incubated in 1 mL Krebs-bicarbonate buffer containing 10 mM Lactate, 1 mM pyruvate, 1 mg/mL BSA, and test compound concentrations from 0 to 500 μM. Incubations were carried out in a 95% oxygen, 5% carbon dioxide atmosphere in closed, 50-mL Falcon tubes submerged in a rapidly shaking water bath (37° C.). After 1 hour, an aliquot (0.25 mL) was removed, transferred to an Eppendorf tube and centrifuged. 50 μL of supernatant was then assayed for glucose content using a Sigma Glucose Oxidase kit as per the manufacturer's instructions.
Rat hepatocytes were isolated and incubated as described in Example C. Cell extracts, were analyzed for glucose content as described in Example C, and also for fructose 1,6-bisphosphate. Fructose 1,6-bisphosphate was assayed spectrophotometrically by coupling its enzymatic conversion to glycerol 3-phosphate to the oxidation of NADH, which was monitored at 340 nm. Reaction mixtures (1 mL) consisted of 200 mM Tris-HCl, pH 7.4, 0.3 mM NADH, 2 units/mL glycerol 3-phosphate dehydrogenase, 2 units/ml triosephosphate isomerase, and 50-100 μL cell extract. After a 30 minute preincubation at 37° C., 1 unit/ml of aldolase was added and the change in absorbance measured until a stable value was obtained. 2 moles of NADH are oxidized in this reaction per mole of fructose 1,6-bisphosphate present in the cell extract.

[2] = system: gluconeogenesis in rat hepatocytes; assay: Inhibition of gluconeogenesis in rat hepatocytes (Example C); format: cell-based; conditions: Hepatocyte, glucose production from lactate/pyruvate, 1 hour
[3] = system: Sprague-Dawley rats; assay: Drug metabolite levels, blood glucose and hepatic fructose 1,6-bisphosphate after Compound A p.o. in rats (Example E); format: in vivo, rat
Procedure: Compound A was administered by oral gavage to freely-feeding Sprague Dawley rats (250-300 g). The compound was prepared as a suspension in carboxymethylcellulose, and administered at a dose of 250 mg/kg. For the determination of liver metabolites, rats were serially sacrificed over the course of 24 hours after drug administration. Livers were freeze-clamped, homogenized in perchloric acid, neutralized, and then analyzed for Compound B by anion exchange HPLC.
For the determination of plasma metabolites, rats were instrumented with carotid catheters prior to oral dosing. Blood samples were withdrawn via the catheters at appropriate time points over the course of 8 hours post drug administration. Plasma was prepared from the blood samples by centrifugation, and plasma protein precipitated by the addition of methanol to 60%. Compound A metabolites were quantitated by reverse phase HPLC in the deproteinated plasma samples. A C18 column (1.4 cm×250 mm) was equilibrated with 10 mM sodium phosphate, pH 5.5 and eluted with a gradient from this buffer to acetonitrile. Detection was at 254 nm.
The effect of Compound A on blood glucose and hepatic fructose 1,6-bisphosphate levels was determined in 18-hour fasted Sprague-Dawley rats (250-300 g). Animals were dosed as described above. At appropriate time points post drug administration, rats were anesthetized with halothane and a liver biopsy (approx. 1 g) was taken, as well as a blood sample (2 mL) from the posterior vena cava. A heparin flushed syringe and needle was used for blood collection. The liver sample was immediately homogenized in ice-cold 10% perchloric acid (3 mL), centrifuged, and the supernatant neutralized with ⅓ rd volume of 3 M KOH/[…]. Following centrifugation and filtration, the neutralized extract was analyzed for fructose 1,6-bisphosphate content as described for isolated hepatocytes in Example C. Blood glucose was measured by means of a Hemocue analyzer (Hemocue Inc, Mission Viejo, Calif.).

[4] = system: Sprague-Dawley rats; assay: Glucose lowering, hepatic and plasma drug levels after intraperitoneal dosing of normal fasted rats (Example F); format: in vivo, rat; conditions: 1 hour post injection
Procedure: Sprague-Dawley rats (250-300 g) were fasted for 18 hours and then dosed intraperitoneally either with saline or FBPase inhibitor. The vehicle used for drug administration was 10 mM bicarbonate. One hour post injection, rats were anesthetized with halothane, and liver and blood samples were taken and processed as described in Example E. The neutralized liver extracts were analyzed for FBPase inhibitor content by HPLC. A reverse phase YMC ODS AQ column (250×4.6 […]) was used and eluted with a gradient from 10 mM sodium phosphate pH 5.5 to 75% acetonitrile. Absorbance was monitored at 310 nm. Glucose was measured in the blood sample as described in Example C. Plasma was prepared by centrifugation and extracted by addition of methanol to 60% (v/v). The methanolic extract was clarified by centrifugation and filtration and then analyzed by HPLC as described above.

[5] = single 250 mg/kg dose p.o., 18-hour fasted rats

liver metabolites ([3]; Compound A 250 mg/kg p.o., over 24 hours)	Liver conc. [4] [nmol/g]	Compound	intracellular fructose 1,6-bisphosphate [1]	IC50 ([1]; Hepatocyte, read-out: IC50, inhibition of glucose production) [µM]	IC50 [2] [µM]	plasma metabolites ([3]; Compound A 250 mg/kg p.o., over 8 hours)	duration of blood glucose lowering [3, 5]	hepatic fructose-1,6-bisphosphate levels [3, 5]
efficiently converted to Compound B		CC(=O)OC[C@H]1O[C@@H](n2cnc(C(N)=O)c2Br)[C@H](OC(C)=O)[C@@H]1OC(C)=O [Compound A]	dose-dependent elevation	50	50	rapidly deacetylated at all three positions	approximately 8 hours	elevation of hepatic fructose-1,6-bisphosphate levels
	38.4	CCc1cc(F)c(N)c2nc(-c3ccc(P(=O)(O)O)o3)n(CC(C)C)c12 [Compound E]	dose-dependent elevation					

— patent US7563774B2, “Combination of FBPase inhibitors and antidiabetic agents useful for the treatment of diabetes” (Metabasis Therapeutics, Inc., priority 2000, dated 2009)
